Source: patent publication US20140314904A1, “PRE-SLAUGHTER DIET INCLUDING METHIONINE” (ADISSEO FRANCE S.A.S., priority 2011, published 2014)

Columns and labels:
Type in all cases: in vivo, pig
slaughter pigs [1] = assay: Free protein thiol (protein oxidation, Ellman's reagent); settings: for Level of free thiol (protein oxidation): 7 days at 2° C., LS mean ± SEM; for Decline of level of free thiol from storage without oxygen to high-oxygen MAP: vacuum versus MAP
Procedure: In Example 1 twenty-one pigs were randomly assigned to one of three feeding groups (n=7). The control group received a standardized diet only. The DLM and HMTBA groups received the standardized diet plus a high-methionine supplement (either DLM (i.e. […] At 48 h post mortem, 3 cm thick pork chops were either vacuum packed or sealed in a modified atmosphere (MA; 80% O2) and stored for an additional 7 days at 2° C. Instrumental hardness was measured using the Warner-Bratzler shear force (WBSF; Newton) method. Protein oxidation was measured as the loss of free thiol groups in proteins (nmol thiol per mg protein) using Ellman's reagent. Lipid oxidation was measured as the increase in 2-thiobarbituric acid reactive substances (TBARS; mg malondialdehyde per kg meat). Twenty-one slaughter pigs ([Yorkshire×Swedish Landrace]×Hampshire) were raised on a commercial diet. Pigs were randomly assigned to one of three groups (n=7). […] Pork chops were cut perpendicular to the long axis of each LD muscle. Six 3 cm thick pork chops was sliced from each LD. Three were vacuum packed and three were packed in a high-oxygen modified atmosphere. The chops were placed in plastic trays ([…]-43A white/PS; 195×144×43 mm in dimension; Frch Plast, Denmark) and placed in vacuum bags (EM-628862; […] The ambient air was removed from all vacuum bags using a vacuum machine (type, manufacturer, country). […] (until 9 days post mortem). The gas composition was checked (CheckMate 9900, PBI Dansensor, Denmark) before packaging and again prior to opening, at the end of the simulated display period in order to check for leakage. The oxygen-enriched environment was well maintained (83.4%) throughout the display period for all MA packages. […] In brief, the frozen pork samples were partially thawed at chill storage temperature for 30 minutes. Fat and connective tissue was removed and 1.0 g of lean meat was homogenised in 25 ml of 5.0% SDS (sodium dodecyl sulphate) in 0.10 M Tris ([…]) buffer, pH 8.0 using an Ultra Turrax (Ultra Turrax T-25, Janke & Kunkel IKA-Labortechnik, Germany). The homogenates were placed in a water bath at 80° C. for 30 minutes, and subsequently cooled and filtered. The protein concentration was determined spectrophotometrically (Helios Omega Single Beam UV-VIS, Fisher Scientific Biotech Line, Denmark) at a wavelength of 280 nm using a standard curve prepared from bovine serum albumin (BSA). […] Filtrate (25 μl), Tris buffer (100 μl) and DTNB (25 μl) were added to wells in a 96 well microtiter plate. The absorbance at 410 nm was measured before addition of DTNB (ABS410meat) and after reaction with DTNB (ABS410meat+DTNB). In addition, the absorbance of a blank solution (25 μl 5% SDS dissolved in 100 mM Tris buffer and 100 μl 0.10 M Tris buffer) was likewise measured at 410 nm. After addition of DTNB, the microtiter plate was stored in the dark and the absorbance was measured exactly 30 minutes later. The absorbance corresponding to the thiol concentration in the sample was CorrABS410=ABS410meat+DTNB-ABS410meat-ABS410blank. […] The concentration of free thiol groups was determined as nmol thiol per mg protein. Duplicate homogenates, and triplicate measurements on each homogenate, were made for each meat sample and the mean values were used for further statistical analysis.

pigs [2] = assay: Colour by Minolta L*a*b*, Example 2; settings: Laboratory, 2 days post mortem
Procedure: (§1) The pigs were slaughtered at a commercial slaughter house in Sweden after a resting time of 5 h. At 45 minutes post mortem, pH (Knick portamess 751) and temperature (digital thermometer, Weber) were measured in the M. longissiumus dorsi at the level of the 10th rib. At 48 h post mortem, the entire loins were dissected from the carcasses and transported to the University of Copenhagen for further measurements. Ultimate pH was measured, as well as colour by Minolta L*a*b*. Dry matter content was determined by drying muscle samples at 105° C. for 24 h. Slices of 3 cm thickness were cut, measured and vacuum packed before being stored for a further 7 days at 2° C. At the end of the storage period samples were heated to an internal temperature of 75° C. After being cooled down, samples were stored cold at 2° C. until they were cut into slabs of 1 cm×1 cm×2.5 cm size for shear force measurement. For each animal, 8 specimens were measured and the mean maximum load was used for further analysis.

pigs [3] = assay: Dry matter content of muscle samples, Example 2; settings: Laboratory, 2 days post mortem
Procedure: as §1

pigs [4] = assay: Shear force (maximum load) after storage, Example 2; settings: 9 days post mortem, P < 0.02
Procedure: as §1

slaughter pigs [5] = assay: Instrumental meat colour (CIE L*a*b*), Example 1; settings: LS mean ± SEM
[6] = MAP 80% O2/20% CO2 (9 days post mortem)

Structure (SMILES)	Level of free thiol (protein oxidation) (slaughter pigs [1]; MAP (80% O2 + 20% CO2))	Level of free thiol (protein oxidation) (slaughter pigs [1]; Vacuum)	Decline of level of free thiol from storage without oxygen to high-oxygen MAP (slaughter pigs [1]) [units]	Colour Minolta L* (pigs [2]) [units]	Colour Minolta a* (pigs [2]) [units]	Colour Minolta b* (pigs [2]) [units]	Dry Matter (pigs [3]) [%]	Maximum Load (pigs [4]) [N]	Light reflection (L*) (slaughter pigs [5]; [6])	Light reflection (L*) (slaughter pigs [5]; Vacuum (9 days post mortem))	Redness (a*) (slaughter pigs [5]; Vacuum (9 days post mortem))	Saturation index (slaughter pigs [5]; Vacuum (9 days post mortem))	Yellowness (b*) (slaughter pigs [5]; Vacuum (9 days post mortem))
CSCCC(O)C(=O)O (racemic) [HMTBA, 2-hydroxy-4-(methylthio) butanoic acid]	59.15 ± 1.13 ^A, B nmol thiol/mg protein	62.60 ± 1.13 ^A nmol thiol/mg protein	3.5	56.89	7.58	3.71	29	37	58.73 ± 1.30 ^A, B	55.34 ± 1.25 ^A, B	8.86 ± 0.58 ^A, C	12.22 ± 0.67 ^A	8.39 ± 0.46 ^A
CSCCC(N)C(=O)O (racemic) [DLM, DL-methionine]	56.27 ± 1.13 ^B nmol thiol/mg protein	62.16 ± 1.19 ^A nmol thiol/mg protein	6.0	55.75	6.69	2.92	26	34	59.19 ± 1.30 ^A	57.83 ± 1.25 ^A, B	8.21 ± 0.58 ^A, B	11.55 ± 0.67 ^A, B, C	8.11 ± 0.46 ^A, B
